# Source: patent US20040092548A1, “OPHTHALMIC TREATMENT” (priority 1995, published 2004)
# Structures can show the parent of a compound that is named as a salt.
# Experiments:
# [1] = tested on: white New Zealand rabbits; assay: Mydriatic response (pupil dilation, RRmax) after ocular dosing of ephedrine hydrochloride; format: in vivo; conditions: 5 μl of 5% solution (250 μg) as droplet stream compared with 5 μl 5% and 25 μl 1% instillates (250 μg each); rabbit
# Procedure: Six white New Zealand rabbits were administered with the following dosage regimen:
# I→25 μl of 1% aqueous ephedrine hydrochloride solution (250 μg) via pipette (instillate)
# II→5 μl of 5% aqueous ephedrine hydrochloride solution (250 μg) via pipette (instillate)
# III→5 μl of 5% aqueous ephedrine hydrochloride solution (250 μg) in a jet/stream of droplets of diameter in the range 200 to 400 μm.
# Pupil diameter measurements were determined from photographs acquired using a Pentax ME super 35 mm camera fitted with a SMC Pentax 50 mm lens and a 2x converter. An aperture setting of 12, and a shutter speed of 1/15 was employed with a film speed of ISO 400 (Kodak Gold 400). The camera was held stationary on a tripod and positioned approximately 30-40 cm from the rabbits eye. Prior to each dosing period the animals were acclimatised to experimental conditions (constant light intensity, minimal distractions) for 20 min. The rabbits were placed in restraining boxes and settled before photographs and baseline pupil diameters were determined 5 min prior to dosing.
# Pupillary diameters were determined from the developed colour prints (6×4) using an electronic micrometer (Digimatic Caliper, Mitutoyo Corp., Japan). […] The maximum response ratio (RRmax) for pupil dilation was then calculated from the photographs using the following relationship: […]
# [2] = tested on: white New Zealand rabbits; assay: Miotic response (pupil diameter) after ocular dosing of pilocarpine hydrochloride, randomised cross-over study; format: in vivo; conditions: rabbit; for AUC (0-4 hours), area under the pupillary diameter vs. time curve / RR max: ± SD
# Procedure: Ten white New Zealand rabbits were treated with the following dosage regimen in a randomised cross-over study:
# 30 μl of 1% aqueous pilocarpine hydrochloride solution (300 μg) was instilled via pipette into the conjunctival sac 5 μl of 1% aqueous pilocarpine hydrochloride solution (50 μg) was applied as a jet and/or stream of droplets (with a diameter in the range of 200 μm to 400 μm) to the surface of the cornea.
# In order to determine pupil diameters, a metallic rule with a circular aperture of known diameter was orientated perpendicular to, and at an appropriate fixed distance from, a video camera fitted with a macro lens (Sony V8 Pro-CDD-V100E) throughout the study. During miotic measurements, the animals were positioned such that the left eye was parallel to the ruler and equidistant from the video camera. The video camera was actuated to project and amplify images of both the reference aperture and left eye onto the monitor screen. The diameters of both the reference aperture and pupil were then measured on the screen using a ruler placed on the projected image at an angle of approximately […]. The value of the pupil diameter was then calculated by multiplying the projected screen pupil diameter by the ratio of the actual reference diameter (8 mm) to the projected screen reference diameter (18 mm).
# Pupil measurements were taken at approximately 60, 45, 30 and 15 minute intervals prior to administration of the treatments to provide a baseline value, and then at 15 minute intervals for the first hour after dosing. Thereafter, the pupil diameter was measured at 30 minute intervals for a minimum duration of 4 hours after dose administration.
# For the purpose of statistical analysis of variants between treatments, the following parameters were determined: RR max=(pupil diameter at time t−pupil diameter at time 0)/pupil diameter at time 0; T max=the first time point at which the smallest pupillary diameter was observed; and AUC (0-4 hours)=the area under the pupillary diameter vs. time curve between 0 and 4 hours after treatment.
# All significance tests were two-tailed and were performed at the 5% significance level. The statistical software SAS V607 and the PROC GLM procedure were used in the analysis.
# [3] = Ocular distribution study of tritiated propranolol hydrochloride; format: in vivo, rabbit
# Procedure: 40 μl of 0.5% aqueous tritiated propranolol hydrochloride solution (200 μg) was administered via pipette into the conjunctival sac of twelve New Zealand white rabbit eyes. Seperately, 5 μl of 4% aqueous tritiated propranolol hydrochloride solution (200 μg) was applied as a jet or stream of droplets (with a diameter in the range of 200 μm to 400 μm) to the surface (cornea and/or conjunctiva) of twelve different New Zealand white rabbit eyes
# Following each treatment, four eyes were ennucleated after 15 minutes, four after 30 minutes and the remaining four after 60 minutes. In each case, the animals were humanely killed prior to the ocular ennucleation procedure via an overdose of sodium pentobarbitol injected into a marginal ear vein. Each eye was then irrigated by instilling 100 μl of normal saline into the conjunctival sac using an automatic pipette and immediately blotting away excess saline with paper tissue to remove any radioactivity in the tear film. Following ennucleation and removal of the adnexal tissue, the cornea was washed with a second 100 μl of normal saline. The aqueous humor was then quickly removed by paracentesis with a 1 ml syringe and 26G needle. To this was then added an equal volume of trichloroacetic acid (TCA) solution (10% w/v) to bring the final concentration to 5% w/v TCA. Both eyes were then dissected from the posterior pole to allow removal of the vitreous humor and the lens, whilst the iris-cilary body was transferred to a tared sample tube. The cornea was then removed using a 12 mm trephine, and the limbal cornea and conjunctiva (with underlying sclera) cut free into a strip approximately 5 mm wide using a scalpel and scissors. Each sample was then weighed in a tared sample tube and at least 5 volumes of TCA (6% w/v) added. All tissue samples were subjected to sonication for 5 minutes, then centrifuged at 10 000 g.min. to yield a supernatent. Each supernatent was then extracted 3 times with 3 volumes of ether and, after evaporation of residual solvent, the aqueous residue was sampled and added to 5 ml of FluoronSafe XE “Scintron” scintillation fluid (BDH Chemicals, UK). Radioactivity was then determined by counting in a Packard 1600DR beta-scintillation counter. Data gathered as counts per minute was then converted into disintegrations per minute (dpm), using external standardisation, and expressed as dpm […] after adjusting for the total radioactivity in each dose. Due to the small number of samples per time point per treatment, statistical analysis was not considered appropriate for this study.
# The results of this study are summarised for the different ocular tissues in tables 1 to 4 below, where the values shown represent dpm (disintegrations per minute) per mg of tissue.
# [4] = cited from earlier work
# [5] = 1% 5 μl jet and/or stream of droplets (50 μg) to cornea
# [6] = 1% 30 μl large eyedrop (300 μg) instilled into conjunctival sac
# [7] = 0.5% 40 μl large eyedrop (200 μg), 15 mins
# [8] = 0.5% 40 μl large eyedrop (200 μg), 30 mins
# [9] = 0.5% 40 μl large eyedrop (200 μg), 60 mins
# [10] = 4.0% 5 μl jet and/or stream of droplets (200 μg), 15 mins
# [11] = 4.0% 5 μl jet and/or stream of droplets (200 μg), 30 mins
# [12] = 4.0% 5 μl jet and/or stream of droplets (200 μg), 60 mins
# [13] = 5 μl eye drop loaded with 26.1 μg
smiles,measurement,setting,value
"CN[C@@H](C)[C@H](O)c1ccccc1 [Ephedrine, ephedrine hydrochloride]","Mydriatic response (RRmax vs time, FIG. 1)",[1],more pronounced and maintained over a longer duration compared to both instillates
"CC[C@@H]1C(=O)OC[C@@H]1Cc1cncn1C [Pilocarpine, pilocarpine hydrochloride]","AUC (0-4 hours), area under the pupillary diameter vs. time curve",[2]; [5],3827 ± 312 mmMin.
same,RR max,[2]; [5],12.3 ± 5.2 %
same,"AUC (0-4 hours), area under the pupillary diameter vs. time curve",[2]; [6],3871 ± 340 mmMin.
same,RR max,[2]; [6],15.2 ± 4.0 %
same,Pupil diameter after administration,"[2]; both dose forms (30 μl eyedrop 300 μg; 5 μl jet 50 μg), after 15 minutes",reduction in pupil diameter was evident
same,Time after treatment at which the miotic effect started to disappear,[2]; both dose forms,60 to 90 min
same,Time after which pupil measurements had fully recovered to predose levels,[2]; both dose forms,120 min
"CC(C)NCC(O)COc1cccc2ccccc12 (centres unmarked) [Propranolol, propranolol hydrochloride]",Radioactivity in aqueous humor,[3]; [7],1310 dpm per mg of tissue
same,Radioactivity in conjunctiva/sclera,[3]; [7],2569 dpm per mg of tissue
same,Radioactivity in cornea,[3]; [7],5579 dpm per mg of tissue
same,Radioactivity in iris-cilary body,[3]; [7],942 dpm per mg of tissue
same,Radioactivity in aqueous humor,[3]; [8],960 dpm per mg of tissue
same,Radioactivity in conjunctiva/sclera,[3]; [8],2838 dpm per mg of tissue
same,Radioactivity in cornea,[3]; [8],3467 dpm per mg of tissue
same,Radioactivity in iris-cilary body,[3]; [8],1033 dpm per mg of tissue
same,Radioactivity in aqueous humor,[3]; [9],705 dpm per mg of tissue
same,Radioactivity in conjunctiva/sclera,[3]; [9],1380 dpm per mg of tissue
same,Radioactivity in cornea,[3]; [9],2945 dpm per mg of tissue
same,Radioactivity in iris-cilary body,[3]; [9],799 dpm per mg of tissue
same,Radioactivity in aqueous humor,[3]; [10],1845 dpm per mg of tissue
same,Radioactivity in conjunctiva/sclera,[3]; [10],5286 dpm per mg of tissue
same,Radioactivity in cornea,[3]; [10],5241 dpm per mg of tissue
same,Radioactivity in iris-cilary body,[3]; [10],2256 dpm per mg of tissue
same,Radioactivity in aqueous humor,[3]; [11],1176 dpm per mg of tissue
same,Radioactivity in conjunctiva/sclera,[3]; [11],2259 dpm per mg of tissue
same,Radioactivity in cornea,[3]; [11],3766 dpm per mg of tissue
same,Radioactivity in iris-cilary body,[3]; [11],1482 dpm per mg of tissue
same,Radioactivity in aqueous humor,[3]; [12],607 dpm per mg of tissue
same,Radioactivity in conjunctiva/sclera,[3]; [12],1673 dpm per mg of tissue
same,Radioactivity in cornea,[3]; [12],1861 dpm per mg of tissue
same,Radioactivity in iris-cilary body,[3]; [12],586 dpm per mg of tissue
same,Level reaching the iris-ciliary body from jet and/or stream of droplets relative to eyedrop,"[3]; 15 minute time point, 200 μg each",more than double
same,Radioactivity in ocular tissues,"[3]; all ocular tissues, all time points, both treatments",Significant radioactivity was detected
CC[C@@H]1C(=O)OC[C@@H]1Cc1cncn1C [pilocarpine nitrate],Drug available for potential systemic absorption,[4]; [13],25.7 µg
same,Fraction of drug absorbed into the eye,[4]; [13],0.41 µg
same,Drug left to be absorbed systemically,[4]; 25 μl drop loaded with 67.8 μg,67.4 µg
same,Drug penetrated the eye,[4]; 25 μl drop loaded with 67.8 μg,0.36 µg
